This is an account of results in patent US11702414B2, “Thiadiazole IRAK4 inhibitors” (Gilead Sciences, Inc., priority 2018, dated 2023).

Like-named read-outs stand apart in the source and are kept apart here.

The test system of assay [1] is TNFα. As to the kind of experiment: IRAK4 Monocyte TNFα Cell Based Assay. Also on record: species or system human. As to conditions: human monocytes, second part of Table 2 (compounds 33-343), unit inferred, read-out: EC50MONO TNF HTRF. A general note: TR-FRET usually uses a lanthanide donor and a delayed reading to cut background.
In assay [2] the target is IRAK4 enzyme (Homo sapiens (Human), UniProt Q9NWZ3). As to the kind of experiment: IRAK4 Biochemical Assay (TR-FRET, STK1 KinEASE).
The mark [3] stands for this setting: second part of Table 2 (compounds 33-343), unit inferred, read-out: IC50 IRAK4-HTBS.

IRAK4 enzyme, sequence (Q9NWZ3 whole entry): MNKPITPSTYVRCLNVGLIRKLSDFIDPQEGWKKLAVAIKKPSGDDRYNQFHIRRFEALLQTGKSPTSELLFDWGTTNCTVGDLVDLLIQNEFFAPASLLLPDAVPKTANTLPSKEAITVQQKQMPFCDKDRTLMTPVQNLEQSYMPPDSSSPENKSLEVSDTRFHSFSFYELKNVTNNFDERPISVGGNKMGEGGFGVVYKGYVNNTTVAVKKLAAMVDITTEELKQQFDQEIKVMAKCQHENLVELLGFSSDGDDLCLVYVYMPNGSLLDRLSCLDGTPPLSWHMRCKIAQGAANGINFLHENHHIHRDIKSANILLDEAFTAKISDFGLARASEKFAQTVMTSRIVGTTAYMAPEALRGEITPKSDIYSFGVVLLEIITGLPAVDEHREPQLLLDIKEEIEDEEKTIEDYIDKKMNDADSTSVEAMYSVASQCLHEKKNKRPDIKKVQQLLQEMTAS

In general, IC50 refers to the point on the concentration scale where inhibition reaches its midpoint. Consider `CC(=O)NC1CC2CC1CC2c1nnc(-c2cnc(-c3ccc4cc(C#N)cnn34)cc2NC(C)C)s1` (centres unmarked) [Example 285, N-(5-(5-(6-(3-cyanopyrrolo[1,2-b]pyridazin-7-yl)-4-(isopropylamino)pyridin-3-yl)-1,3,4-thiadiazol-2-yl)bicyclo[2.2.1]heptan-2-yl)acetamide], for which, in assay [1] (Homo sapiens, Monocyte), the EC50 is 68 nM. Further, half-maximal inhibition in assay [2] (IC50) was put at 0.78 nM.
Taken in the same sequence, the figures for `CC(C)Nc1cc(-c2ccc3cc(C#N)cnn23)ncc1-c1nnc(N2CCC(C)(O)CC2)s1` [Example 287, 7-(5-(5-(4-hydroxy-4-methylpiperidin-1-yl)-1,3,4-thiadiazol-2-yl)-4-(isopropylamino)pyridin-2-yl)pyrrolo[1,2-b]pyridazine-3-carbonitrile] were 9.8 nM and 0.86 nM.
`CC(=O)N1C[C@@H]2C[C@H]1CN2c1nnc(-c2cnc(-c3ccc4cc(C#N)cnn34)cc2NC(C)C)s1` [Example 302, 7-(5-(5-((1S,4S)-5-acetyl-2,5-diazabicyclo[2.2.1]heptan-2-yl)-1,3,4-thiadiazol-2-yl)-4-(isopropylamino)pyridin-2-yl)pyrrolo[1,2-b]pyridazine-3-carbonitrile]: in assay [1] (Homo sapiens, Monocyte), the EC50 came out at 5.3 nM. In assay [2], the IC50 turned out to be 0.59 nM.
Taken in the same sequence, the figures for `CC(C)Nc1cc(-c2ccc3cc(C#N)cnn23)ncc1-c1nnc(N2CCN(C3COC3)CC2)s1` [Example 304, 7-(4-(isopropylamino)-5-(5-(4-(oxetan-3-yl)piperazin-1-yl)-1,3,4-thiadiazol-2-yl)pyridin-2-yl)pyrrolo[1,2-b]pyridazine-3-carbonitrile] were 9.8 nM and 0.54 nM.
With “(S)-1-(5-(6-(3-cyanopyrrolo[1,2-b]pyridazin-7-yl)-4-(oxetan-3-ylamino)pyridin-3-yl)-1,3,4-thiadiazol-2-yl)-N-methylpyrrolidine-2-carboxamide [Compound 332]”, in assay [1], the EC50 amounted to 435 nM. The IC50 in assay [2] (setting [3]) came to 1.61 nM.
For the compound “N1-((1R,5S,8s)-3-(5-(6-(3-cyanopyrrolo[1,2-b]pyridazin-7-yl)-4-(isopropylamino)pyridin-3-yl)-1,3,4-thiadiazol-2-yl)-3-azabicyclo[3.2.1]octan-8-yl)-N2-(dimethyl(oxo)-16-sulfanylidene)oxalamide [Example 103]”, the EC50 in assay [1] is 1.4 nM. The IC50 in assay [2] (setting [3]) stood at 0.51 nM.
With “N-((1R,5S,8s)-3-(5-(6-(3-cyanopyrrolo[1,2-b]pyridazin-7-yl)-4-(isopropylamino)pyridin-3-yl)-1,3,4-thiadiazol-2-yl)-3-azabicyclo[3.2.1]octan-8-yl)-2-((dimethyl(oxo)-16-sulfanylidene)amino)acetamide [Example 98]”, the EC50 in assay [1] is 3.2 nM. Besides, the IC50 in assay [2] (setting [3]) is 1.13 nM.
